# Tested on: control human primary myoblasts
# Experiment: Expression microarray of primary myoblasts transduced with lentivirus carrying DUX4-fl, DUX4-s or GFP
# Protocol: Primary human myoblasts were collected and cultured as previously described (Snider et al., 2010). Primary myoblasts were maintained at or below 70% confluency for proliferation. For differentiation, cells were allowed to reach 95-100% confluency in growth medium. Once confluency was reached, the cells were changed to differentiation medium (F10 media supplemented with 1% horse serum, 10 μg/mL insulin, and 10 μg/mL transferrin, penicillin/streptomycin) and maintained for 4 days. Human RD cells were grown in DMEM in 10% bovine calf serum (Hyclone) and penicillin/streptomycin. The primary myoblasts were transduced with lentivirus carrying DUX-fl, DUX4- or GFP (MOI=15).
# Expression microarrays were performed on the transduced cells at 24 hours after transduction as follows. […] Samples were analyzed by Illumina Human Whole Genome microarrays. Probe intensities were corrected, normalized, and summarized by the Lumi package of Bioconductor (Du et al., 2008). Differentially expressed genes were identified by the LIMMA package of Bioconductor (Wettenhall and Smyth, 2004). Gene set enrichment analysis (GSEA) was performed using the Bioconductor GOstats package (Falcon and Gentleman, 2007).
substance,measurement,setting,value
"DUX4-fl: full-length DUX4 protein (SEQ ID NO:110), expressed from lentiviral or pCS2 vectors or in vitro translated",NFKBIA expression fc,"Refseq NM_020529.1, cultured human skeletal muscle",−3.004
same,fc of RCN3 (expression array),Refseq NM_020650.2,−1.062
same,PELI1 expression fc,Refseq NM_020651.2,2.886
same,fc of FAM62B (expression array),Refseq NM_020728.1,−0.7938
same,HECW2 fc,Refseq NM_020760.1,−1.167
same,ZNF319 fc,Refseq NM_020807.1,−1.119
same,OSBPL8 expression fc,Refseq NM_020841.4,1.95
same,USP29 expression fc,Refseq NM_020903.2,2.597
same,fc of RNF213 (expression array),Refseq NM_020914.3,−1.024
same,fc of FAM160B1 (expression array),Refseq NM_020940.3,−1.051
same,fc of IGDCC4 (expression array),Refseq NM_020962.1,−1.054
same,RFPL1 expression fc,Refseq NM_021026.2,6.264
same,IFITM3 expression fc,"Refseq NM_021034.2, cultured human skeletal muscle",−1.949
same,NEFH expression fc,Refseq NM_021076.2,1.936
same,fc of SLC8A1 (expression array),Refseq NM_021097.2,−0.4596
same,PSAT1 fc,Refseq NM_021154.3,−1.076
same,RAB40C fc,Refseq NM_021168.2,−1.168
same,fc of SLC30A1 (expression array),Refseq NM_021194.2,−0.3462
same,CTDSP1 fc,Refseq NM_021198.1,−1.122
same,ARHGAP22 fc,Refseq NM_021226.2,−1.084
same,fc of NTN4 (expression array),Refseq NM_021229.3,−1.022
same,PELI2 expression fc,Refseq NM_021255.2,2.782
same,PLEKHA2 fc,Refseq NM_021623.1,−1.077
same,AVPI1 expression fc,Refseq NM_021732.1,2.022
same,fc of FAM3A (expression array),Refseq NM_021806.1,−1.022
same,APOBEC3G expression fc,"Refseq NM_021822.1, cultured human skeletal muscle",−2.012
same,fc of C14orf93 (expression array),Refseq NM_021944.1,−1.063
same,HSPA2 expression fc,Refseq NM_021979.3,3.67
same,CXCL16 fc,Refseq NM_022059.1,−1.09
same,NOD2 fc,Refseq NM_022162.1,−1.135
same,IFIH1 expression fc,"Refseq NM_022168.2, cultured human skeletal muscle",−3.705
same,HS1BP3 fc,Refseq NM_022460.3,−1.078
same,C14orf173 fc,Refseq NM_022489.2,−1.167
same,FEZ1 fc,Refseq NM_022549.2,−1.073
same,HIPK2 fc,Refseq NM_022740.2,−1.173
same,fc of MOSC1 (expression array),Refseq NM_022746.2,−1.034
same,PARP12 expression fc,"Refseq NM_022750.2, cultured human skeletal muscle",−3.165
same,CRTC3 fc,Refseq NM_022769.3,−1.138
same,FAM129B fc,Refseq NM_022833.2,−1.126
same,IFI6 expression fc,"Refseq NM_022872.2, cultured human skeletal muscle",−4.24
same,FGFR3 expression fc,Refseq NM_022965.1,3.112
same,PRAMEF1 expression fc,Refseq NM_023013.1,8.072
same,PRAMEF2 expression fc,Refseq NM_023014.1,6.439
same,C8orf33 expression fc,Refseq NM_023080.1,2.251
same,GRAMD3 fc,Refseq NM_023927.1,−1.115
same,NEUROG2 expression fc,Refseq NM_024019.2,3.857
same,NUP37 fc,Refseq NM_024057.2,−1.075
same,PRRG4 expression fc,Refseq NM_024081.4,2.369
same,TRIM48 expression fc,Refseq NM_024114.2,7.88
same,DHX58 expression fc,"Refseq NM_024119.2, cultured human skeletal muscle",−2.836
same,PRKAG2 fc,Refseq NM_024429.1,−1.099
same,fc of FAM65A (expression array),Refseq NM_024519.2,−1.053
same,fc of ZC3HAV1 (expression array),Refseq NM_024625.3,−0.8233
same,YRDC expression fc,Refseq NM_024640.3,2.601
same,NPEPL1 fc,Refseq NM_024663.3,−1.113
same,SNIP1 expression fc,Refseq NM_024700.2,2.104
same,fc of FAM57A (expression array),Refseq NM_024792.1,−1.045
same,C13orf34 expression fc,Refseq NM_024808.2,2.492
same,fc of NUDT18 (expression array),Refseq NM_024815.3,−1.034
same,fc of ZNF672 (expression array),Refseq NM_024836.1,−1.034
same,C14orf159 expression fc,"Refseq NM_024952.5, cultured human skeletal muscle",−2.07
same,NRSN2 fc,Refseq NM_024958.1,−1.091
same,SLC24A6 fc,Refseq NM_024959.2,−1.099
same,CSRNP3 expression fc,Refseq NM_024969.2,2.496
same,fc of ULBP1 (expression array),Refseq NM_025218.2,−1.025
same,C6orf148 expression fc,Refseq NM_030568.2,6.759
same,KLHL15 expression fc,Refseq NM_030624.1,3.373
same,fc of ZBP1 (expression array),Refseq NM_030776.1,−0.3281
same,SLC2A10 fc,Refseq NM_030777.3,−1.119
same,SYNC1 fc,Refseq NM_030786.1,−1.127
same,PDRG1 expression fc,Refseq NM_030815.2,1.783
same,UNC93B1 expression fc,"Refseq NM_030930.2, cultured human skeletal muscle",−1.961
same,PPP1R14C expression fc,Refseq NM_030949.2,3.049
same,TRIM56 fc,Refseq NM_030961.1,−1.14
same,fc of RNF146 (expression array),Refseq NM_030963.2,−1.02
same,ADPGK expression fc,Refseq NM_031284.3,2.233
same,C11orf68 fc,Refseq NM_031450.2,−1.142
same,FAM107B expression fc,Refseq NM_031453.2,2.529
same,PARP9 expression fc,"Refseq NM_031458.1, cultured human skeletal muscle",−2.098
same,IFI27L2 fc,Refseq NM_032036.2,−1.137
same,SFRS2B expression fc,Refseq NM_032102.2,4.215

# Reference: patent US20140242093A1, “METHODS AND COMPOSITIONS FOR MODULATING THE INNATE IMMUNE RESPONSE AND/OR MYOGENESIS IN A MAMMALIAN SUBJECT” (FRED HUTCHINSON CANCER RESEARCH CENTER, priority 2011, published 2014)
